Results on nine molecules are retold here after ChEMBL document CHEMBL5291721, “A preclinical secondary pharmacology resource illuminates target-adverse drug reaction associations of marketed drugs” (Nat Commun, 2023).

A value given as a limit tells only on which side of the number the result lay.

Assay [1] deals with T1, Thromboxane A2 receptor (Homo sapiens, UniProt P21731).
T1 sequence (P21731 whole entry): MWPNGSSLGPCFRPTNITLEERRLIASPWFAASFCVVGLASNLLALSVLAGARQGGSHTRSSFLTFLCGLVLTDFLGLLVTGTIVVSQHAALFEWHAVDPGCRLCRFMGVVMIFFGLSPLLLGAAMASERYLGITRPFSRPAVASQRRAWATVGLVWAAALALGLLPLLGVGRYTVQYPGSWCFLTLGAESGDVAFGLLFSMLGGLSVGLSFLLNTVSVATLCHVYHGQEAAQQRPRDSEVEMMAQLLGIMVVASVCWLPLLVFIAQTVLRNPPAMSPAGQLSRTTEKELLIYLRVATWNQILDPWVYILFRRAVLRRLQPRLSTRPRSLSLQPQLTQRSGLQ
The format is functional, cell-based.

For assay [2], the target named is T2, Alpha-1A adrenergic receptor (Homo sapiens, UniProt P35348).
T2 sequence (P35348 whole entry): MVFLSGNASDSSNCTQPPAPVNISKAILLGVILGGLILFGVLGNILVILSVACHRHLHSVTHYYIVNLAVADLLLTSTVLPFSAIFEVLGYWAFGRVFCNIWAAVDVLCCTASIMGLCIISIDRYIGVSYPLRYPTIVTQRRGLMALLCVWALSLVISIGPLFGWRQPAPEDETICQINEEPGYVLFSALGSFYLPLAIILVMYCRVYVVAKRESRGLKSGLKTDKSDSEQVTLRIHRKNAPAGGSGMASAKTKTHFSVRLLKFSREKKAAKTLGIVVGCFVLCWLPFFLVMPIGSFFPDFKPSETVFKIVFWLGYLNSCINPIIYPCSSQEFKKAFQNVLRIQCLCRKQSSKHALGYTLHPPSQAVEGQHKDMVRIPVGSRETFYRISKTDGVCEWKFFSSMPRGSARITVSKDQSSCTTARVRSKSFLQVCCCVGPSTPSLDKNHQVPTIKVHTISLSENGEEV
The format is functional, cell-based.

Assay [3] has as its target D(1A) dopamine receptor (Homo sapiens, UniProt P21728).
The target of assay [4] is 5-hydroxytryptamine receptor 2B (Homo sapiens, UniProt P41595). In kind it is functional, cell-based.
The target of assay [5] is T3, 5-hydroxytryptamine receptor 1A (Homo sapiens, UniProt P08908).
T3 sequence (P08908 whole entry): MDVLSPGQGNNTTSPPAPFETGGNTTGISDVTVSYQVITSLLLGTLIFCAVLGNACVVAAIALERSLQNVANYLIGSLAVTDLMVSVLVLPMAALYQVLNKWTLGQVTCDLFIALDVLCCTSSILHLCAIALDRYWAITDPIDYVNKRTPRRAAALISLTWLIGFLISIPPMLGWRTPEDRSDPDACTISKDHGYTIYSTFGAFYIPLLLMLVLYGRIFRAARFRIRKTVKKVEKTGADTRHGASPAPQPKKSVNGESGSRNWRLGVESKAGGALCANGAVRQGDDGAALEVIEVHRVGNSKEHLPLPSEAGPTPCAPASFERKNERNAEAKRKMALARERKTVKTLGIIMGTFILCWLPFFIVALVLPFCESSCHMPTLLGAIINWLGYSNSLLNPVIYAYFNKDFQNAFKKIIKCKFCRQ

Assay [6] addresses 3',5'-cyclic-AMP phosphodiesterase 4A (Homo sapiens, UniProt P27815). The format is functional.
Assay [7] deals with Prothrombin (Homo sapiens, UniProt P00734). The format is functional.
Assay [8] concerns the target T4, Muscarinic acetylcholine receptor M2 (Homo sapiens, UniProt P08172).
T4 sequence (P08172 whole entry): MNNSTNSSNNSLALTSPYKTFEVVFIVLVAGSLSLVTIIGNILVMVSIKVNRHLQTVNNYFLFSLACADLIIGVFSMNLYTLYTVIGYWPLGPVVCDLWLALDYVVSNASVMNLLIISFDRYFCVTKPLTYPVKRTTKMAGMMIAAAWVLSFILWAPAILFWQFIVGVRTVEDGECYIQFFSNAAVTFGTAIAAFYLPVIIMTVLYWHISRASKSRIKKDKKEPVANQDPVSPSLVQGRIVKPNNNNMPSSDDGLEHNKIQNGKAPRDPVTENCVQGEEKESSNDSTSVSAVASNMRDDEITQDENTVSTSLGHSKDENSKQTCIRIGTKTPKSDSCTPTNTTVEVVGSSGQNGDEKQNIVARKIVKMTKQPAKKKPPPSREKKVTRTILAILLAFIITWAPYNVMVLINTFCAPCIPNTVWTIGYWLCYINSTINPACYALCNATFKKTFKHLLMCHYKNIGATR

For assay [9], the target named is T5, Adenosine receptor A3 (Homo sapiens, UniProt P0DMS8).
T5 sequence (P0DMS8 whole entry): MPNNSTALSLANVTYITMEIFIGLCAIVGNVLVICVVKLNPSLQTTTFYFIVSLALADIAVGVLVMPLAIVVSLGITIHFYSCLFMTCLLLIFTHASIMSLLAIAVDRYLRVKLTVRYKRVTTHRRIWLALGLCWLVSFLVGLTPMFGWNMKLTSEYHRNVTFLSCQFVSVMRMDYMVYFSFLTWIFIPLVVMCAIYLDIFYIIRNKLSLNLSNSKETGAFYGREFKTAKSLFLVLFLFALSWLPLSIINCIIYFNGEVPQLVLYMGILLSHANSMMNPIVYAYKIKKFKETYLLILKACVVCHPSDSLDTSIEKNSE

The target of assay [10] is Acetylcholinesterase (Homo sapiens, UniProt P22303). The format is functional.
Assay [11] addresses T1, Thromboxane A2 receptor. In kind it is functional, cell-based. The source holds these as a separate data set.
Assay [12] has as its target T2, Alpha-1A adrenergic receptor. The format is functional, cell-based. The source holds these as a separate data set.
The target in assay [13] is T6, Alpha-2A adrenergic receptor (Homo sapiens, UniProt P08913).
T6 sequence (P08913 whole entry): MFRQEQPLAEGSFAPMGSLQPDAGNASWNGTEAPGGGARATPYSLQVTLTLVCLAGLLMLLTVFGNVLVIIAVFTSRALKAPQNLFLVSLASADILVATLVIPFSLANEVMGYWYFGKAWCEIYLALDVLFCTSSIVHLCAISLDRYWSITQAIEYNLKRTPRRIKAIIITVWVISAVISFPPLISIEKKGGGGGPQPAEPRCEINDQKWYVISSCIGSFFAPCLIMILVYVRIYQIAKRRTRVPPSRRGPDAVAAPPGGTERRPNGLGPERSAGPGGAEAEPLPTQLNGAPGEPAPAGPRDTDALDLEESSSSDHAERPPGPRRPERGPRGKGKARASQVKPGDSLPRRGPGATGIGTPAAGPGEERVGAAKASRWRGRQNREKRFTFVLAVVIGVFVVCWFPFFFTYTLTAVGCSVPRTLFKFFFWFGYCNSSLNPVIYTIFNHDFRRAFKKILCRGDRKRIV
Further: assay procedure not described here.

Chain of D(1A) dopamine receptor (P21728 whole entry): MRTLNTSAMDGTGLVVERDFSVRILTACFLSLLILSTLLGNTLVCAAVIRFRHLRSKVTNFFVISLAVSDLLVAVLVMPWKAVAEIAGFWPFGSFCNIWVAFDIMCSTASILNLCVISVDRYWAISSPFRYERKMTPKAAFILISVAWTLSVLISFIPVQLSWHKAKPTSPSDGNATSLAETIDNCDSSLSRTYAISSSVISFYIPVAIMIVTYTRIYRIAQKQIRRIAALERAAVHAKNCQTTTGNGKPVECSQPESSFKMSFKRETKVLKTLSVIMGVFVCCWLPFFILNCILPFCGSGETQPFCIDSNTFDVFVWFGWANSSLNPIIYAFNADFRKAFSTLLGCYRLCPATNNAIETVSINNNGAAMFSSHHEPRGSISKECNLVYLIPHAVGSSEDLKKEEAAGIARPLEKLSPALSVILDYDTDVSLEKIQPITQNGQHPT
Chain of 3',5'-cyclic-AMP phosphodiesterase 4A (P27815 whole entry): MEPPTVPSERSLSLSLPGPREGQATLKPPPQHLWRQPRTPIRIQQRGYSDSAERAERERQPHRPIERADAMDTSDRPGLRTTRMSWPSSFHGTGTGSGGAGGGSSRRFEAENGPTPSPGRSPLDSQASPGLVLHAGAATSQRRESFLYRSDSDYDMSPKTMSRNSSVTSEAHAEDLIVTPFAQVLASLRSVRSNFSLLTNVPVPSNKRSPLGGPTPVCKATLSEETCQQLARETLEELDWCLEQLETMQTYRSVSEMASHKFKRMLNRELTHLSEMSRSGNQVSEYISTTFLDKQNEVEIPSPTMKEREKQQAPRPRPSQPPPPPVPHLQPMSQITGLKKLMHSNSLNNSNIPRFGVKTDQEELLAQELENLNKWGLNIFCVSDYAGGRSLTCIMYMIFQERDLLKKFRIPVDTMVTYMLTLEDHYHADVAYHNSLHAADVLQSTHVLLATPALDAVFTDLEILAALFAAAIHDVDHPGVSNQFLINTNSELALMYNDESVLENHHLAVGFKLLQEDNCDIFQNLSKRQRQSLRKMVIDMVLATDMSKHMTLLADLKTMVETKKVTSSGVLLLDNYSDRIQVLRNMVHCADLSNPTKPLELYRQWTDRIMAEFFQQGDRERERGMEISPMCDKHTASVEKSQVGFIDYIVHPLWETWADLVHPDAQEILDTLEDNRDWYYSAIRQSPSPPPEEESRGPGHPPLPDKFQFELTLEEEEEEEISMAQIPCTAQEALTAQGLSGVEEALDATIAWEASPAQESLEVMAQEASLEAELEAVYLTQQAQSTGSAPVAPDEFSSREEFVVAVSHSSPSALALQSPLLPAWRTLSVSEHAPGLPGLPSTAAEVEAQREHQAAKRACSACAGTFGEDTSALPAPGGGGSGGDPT
Chain of 5-hydroxytryptamine receptor 2B (P41595 whole entry): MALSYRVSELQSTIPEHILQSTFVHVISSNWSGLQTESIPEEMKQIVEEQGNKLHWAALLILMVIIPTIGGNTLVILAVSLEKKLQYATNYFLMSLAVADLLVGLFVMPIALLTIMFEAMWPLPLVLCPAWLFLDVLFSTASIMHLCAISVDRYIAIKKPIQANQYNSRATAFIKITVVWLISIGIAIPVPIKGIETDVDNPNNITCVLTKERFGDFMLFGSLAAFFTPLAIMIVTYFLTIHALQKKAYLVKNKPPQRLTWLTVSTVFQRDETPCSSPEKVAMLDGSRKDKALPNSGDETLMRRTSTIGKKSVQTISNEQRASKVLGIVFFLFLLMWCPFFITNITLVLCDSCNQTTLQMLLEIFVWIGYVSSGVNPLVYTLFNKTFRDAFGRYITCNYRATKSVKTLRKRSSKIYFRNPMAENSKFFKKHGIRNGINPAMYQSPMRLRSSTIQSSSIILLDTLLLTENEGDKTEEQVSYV
Chain of Acetylcholinesterase (P22303 whole entry): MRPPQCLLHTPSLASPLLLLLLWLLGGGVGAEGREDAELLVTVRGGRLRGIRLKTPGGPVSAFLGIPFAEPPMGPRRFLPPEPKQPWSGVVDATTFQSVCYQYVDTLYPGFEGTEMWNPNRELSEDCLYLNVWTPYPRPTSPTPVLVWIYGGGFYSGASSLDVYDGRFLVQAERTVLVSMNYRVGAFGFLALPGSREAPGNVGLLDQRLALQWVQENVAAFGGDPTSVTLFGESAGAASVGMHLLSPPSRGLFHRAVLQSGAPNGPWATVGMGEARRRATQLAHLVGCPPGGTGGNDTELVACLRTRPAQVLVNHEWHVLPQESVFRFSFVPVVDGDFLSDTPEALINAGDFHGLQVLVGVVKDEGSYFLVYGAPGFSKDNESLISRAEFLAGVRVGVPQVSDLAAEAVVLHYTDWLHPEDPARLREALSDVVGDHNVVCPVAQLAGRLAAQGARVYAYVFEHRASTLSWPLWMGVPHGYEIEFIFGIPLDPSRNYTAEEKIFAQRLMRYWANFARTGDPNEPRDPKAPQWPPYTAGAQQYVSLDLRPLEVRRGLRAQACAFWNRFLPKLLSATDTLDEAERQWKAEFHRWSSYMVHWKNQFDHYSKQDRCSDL

The AC50 is the midpoint of the concentration-response curve, whichever way the signal moves. Read a low AC50 as greater potency. For `CCN(CC)CCOC(=O)C(Cc1cccc2ccccc12)CC1CCCO1` (configuration not stated) [NAFRONYL], the AC50 is over 30 µM in [1]; over 30 µM in [2]; 23.5 µM in [3]; over 30 µM in [4]; over 30 µM in assay [5]; over 30 µM in assay [6]. In addition, the AC50 in assay [7] is over 30 µM; in assay [8], 0.199 µM; in assay [9], over 30 µM; in assay [10] it was over 30 µM; in [11], over 30 µM; in assay [12] it was over 30 µM. The molecule also returned a half-maximal activity concentration (AC50) in assay [13] of over 30 µM.

As for `C1CNCCN1` [PIPERAZINE], the AC50 in assay [1] is over 30 µM; in [2], over 30 µM; in assay [3], over 30 µM; in assay [4], over 30 µM; in assay [5], over 30 µM; in assay [6], 28.4 µM. Besides, the AC50 in [7], in [8], in assay [9], in assay [10], in assay [11] and in assay [12] was over 30 µM throughout. Also, the AC50 in [13] was over 30 µM.

With `c1cc(CN2CCCNCCNCCCNCC2)ccc1CN1CCCNCCNCCCNCC1` [PLERIXAFOR], the AC50 in assay [1], in assay [2], in [3], in [4], in [5] and in [6] was over 30 µM throughout. For the same molecule, the AC50 in assay [7], in assay [8], in [9], in assay [10], in assay [11] and in [12] was over 30 µM each time. Besides, the AC50 in assay [13] is over 30 µM.

For `O=C(NC(Cc1cc(=O)[nH]c2ccccc12)C(=O)O)c1ccc(Cl)cc1` (configuration not stated) [REBAMIPIDE], the AC50 in assay [1], in [2], in [3], in [4], in assay [5] and in assay [6] was over 30 µM each time. Further, the AC50 in [7], in assay [8], in assay [9], in assay [10], in [11] and in [12] was over 30 µM in each case. Further, the AC50 in assay [13] was over 30 µM.

For the molecule `CCCC(=O)O[C@H]1[C@H](C)O[C@@H](O[C@H]2[C@H](N(C)C)[C@@H](O)[C@H](O[C@H]3[C@@H](CC=O)C[C@@H](C)[C@@H](O)/C=C/C=C/C[C@@H](C)OC(=O)C[C@@H](O)[C@@H]3OC)O[C@@H]2C)C[C@@]1(C)OC(=O)CC` [ROKITAMYCIN], the AC50 in [1], in [2], in [3], in assay [4], in [5] and in assay [6] was over 30 µM each time. Besides, the AC50 in [7], in [8], in [9], in assay [10], in assay [11] and in [12] was over 30 µM throughout. This molecule yielded an AC50 in [13] of over 30 µM.

Consider `CCCCCCCCCCCCCCCCCC(=O)NCCCC[C@H](NC(=O)CC[C@@H](NC(=O)[C@H](C)NC(=O)[C@@H](C)O[C@H]1[C@H](O)[C@@H](CO)OC(O)[C@@H]1NC(C)=O)C(N)=O)C(=O)O` (some centres not stated) [ROMURTIDE], for which the AC50 in [1] was over 3 µM; in assay [2] it was over 30 µM; in [3], over 30 µM; in assay [4], over 30 µM; in [5], 6.21 µM; in assay [6], over 3 µM. The AC50 in assay [7] was over 30 µM; in assay [8] it was over 30 µM; in [9], 2.2 µM; in [10] it was over 30 µM; in assay [11], 15.9 µM; in assay [12] it was 13.3 µM. The molecule further returned an AC50 in assay [13] of over 30 µM.

`O=C(Oc1ccccc1C(=O)O)c1ccccc1O` [SALSALATE]: the AC50 in [1], in assay [2], in assay [3], in assay [4], in [5] and in [6] was over 30 µM in each case. Also, the concentration at half-maximal activity (AC50) in assay [7], in [8], in [9], in assay [10], in assay [11] and in [12] was over 30 µM throughout. The same molecule gave an AC50 in [13] of over 30 µM.

As to `CCOC(=O)[C@H](CCc1ccccc1)N[C@H]1CS[C@H](c2cccs2)CN(CC(=O)O)C1=O` [TEMOCAPRIL], the AC50 in [1] is over 30 µM; in [2], over 30 µM; in [3], over 30 µM; in [4], over 30 µM; in assay [5], over 30 µM; in assay [6], over 10 µM. For the same molecule, the AC50 in assay [7], in [8], in assay [9], in assay [10], in assay [11] and in assay [12] was over 30 µM each time. Further, the AC50 in assay [13] was over 30 µM.

`COc1cc([C@@H]2c3cc4c(cc3[C@@H](O[C@@H]3O[C@@H]5CO[C@@H](c6cccs6)O[C@H]5[C@H](O)[C@H]3O)[C@H]3COC(=O)[C@H]23)OCO4)cc(OC)c1O` [TENIPOSIDE]: the AC50 in assay [1], in assay [2], in assay [3], in [4], in [5] and in assay [6] was over 30 µM throughout. Besides, the AC50 in [7], in assay [8], in [9], in assay [10], in [11] and in assay [12] was over 30 µM in each case. In assay [13], the AC50 was over 30 µM.
